Legend:
Type in all cases: in vivo
Summer wheat = assay: Greenhouse container trials with cereals, use of safeners (post-emergence herbicidal effect on crop)
Procedure: (§1) Post-Emergence Herbicidal Effect
Seeds of monocotyledonous and dicotyledonous weed plants and crop plants are placed in sandy loam soil in wood fibre pots or in plastic pots and are covered with earth and cultivated in a greenhouse and also, during the vegetation period, outdoors, outside of the greenhouse, under good growth conditions. 2 to 3 weeks after sowing, the trial plants are treated at the one- to three-leaf stage. The test compounds, formulated as wettable powders (WP) or liquids (EC), are sprayed onto the plants and the soil surface in various dosages, with a water application rate of 300 l/ha (converted) and with addition of wetting agent (0.2% to 0.3%). […]
(§2) If the testing is also to look at whether safeners can improve the tolerance of the crop plants for test substances, the following options are used for the application of the safener: • seeds of the crop plants are dressed with the safener substance prior to sowing (the amount of safener is stated as a percentage, based on the seed weight) • crop plants are sprayed with the safener, with a defined application rate per hectare, prior to application of the test substances (typically 1 day before the test substances are applied) • the safener is applied together with the test substance in the form of a tank mix (the amount of safener is reported in g/ha or as a proportion relative to the herbicide).
(§3) By comparing the effect of test substances on crop plants which have been treated with safener and without safener it is possible to assess the effect of the safener substance.
(§4) Greenhouse Container Trials with Cereals
(§5) Mefenpyr 1 Day Prior to Herbicide Application

Summer barley = assay: as above; settings: without safener; for Summer barley observed (%): 28 days after application; for Summer barley observed (%) herbicidal effect: 10 days after application
Procedure: as §1
Seeds of monocotyledonous and dicotyledonous weed plants and crop plants are placed in sandy loam soil in wood fibre pots or in plastic pots and are covered with earth and cultivated in a greenhouse and also, during the vegetation period, outdoors, outside of the greenhouse, under good growth conditions. 2 to 3 weeks after sowing, the trial plants are treated at the one- to three-leaf stage. The test compounds, formulated as wettable powders (WP) or liquids (EC), are sprayed onto the plants and the soil surface in various dosages, with a water application rate of 300 l/ha (converted) and with addition of wetting agent (0.2% to 0.3%). 3 to 4 weeks after the trial plants have been treated, the effect of the products is rated visually in comparison to untreated controls (herbicidal effect in percent: 100% effect=plants have died, 0% effect=like control plants).
as §2, §3, §4, §5

[1] = tested on: rice brown planthopper (Nilaparvata lugens); assay: Nilaparvata lugens test (NILALU hydroponic treatment); settings: concentration of 500 ppm after 7 d
Procedure: NILALU Hydroponic Treatment
• 78 parts by weight of acetone • 1.5 parts by weight of dimethylformamide Emulsifier: • 0.5 part by weight of alkylaryl polyglycol ether
(§6) To produce a suitable preparation of active compound, 1 part by weight of active compound is mixed with the stated amounts of solvents and emulsifier, and the concentrate is diluted with emulsifier-containing water to the desired concentration.
The active compound preparation is pipetted into water. The stated concentration refers to the amount of active compound per volume unit of water (mg/l=ppm); the infection with the rice brown planthopper (Nilaparvata lugens) is then carried out.
After the desired period of time, the effect in % is determined. 100% means that all rice planthoppers have been killed; 0% means that none of the rice planthoppers have been killed.

[2] = tested on: cotton aphid (Aphis gossypii); assay: Activity boost through ammonium/phosphonium salts, Aphis gossypii test
Procedure: (§7) Solvent: 7 parts by weight of dimethylformamide
(§8) Emulsifier: 2 parts by weight of alkylaryl polyglycol ether
as §6, with “solvent” for “solvents”, “concentration. For application with ammonium salts or phosphonium salts these are added in a concentration of 1000 ppm a.i. to the spray liquor.” for “concentration.”
(§9) Cotton plants (Gossypium hirsutum) heavily infested by the cotton aphid (Aphis gossypii) are sprayed to runoff with the preparation of active compound at the desired concentration.
(§10) After the desired period of time, the kill in % is determined. 100% means that all aphids have been killed; 0% means that none of the aphids have been killed.

[3] = tested on: green peach aphid (Myzus persicae); assay: Activity boost through ammonium/phosphonium salts, Myzus persicae test; settings: 20 ppm active compound
Procedure: Activity Boost Through Ammonium/Phosphonium Salts
as §7, §8
To produce a suitable preparation of active compound, 1 part by weight of active compound is mixed with the stated amounts of solvent and emulsifier, and the concentrate is diluted with water to the desired concentration. For application with ammonium salts or phosphonium salts these are added in a concentration of 1000 ppm a.i. to the spray liquor.
Bell pepper plants (Capsicum annuum) which are heavily infested by the Green peach aphid (Myzus persicae) are treated with the active compound preparation of the desired concentration by spraying to runoff point. After the desired period of time, the kill in % is determined. 100% means that all animals have been killed; 0% means that none of the animals have been killed.

[4] = tested on: cotton aphid (Aphis gossypii); assay: Activity boost through ammonium/phosphonium salts in combination with penetration promoters, Aphis gossypii test; settings: 4 ppm active compound
Procedure: as §7, §8
(§11) To produce a suitable preparation of active compound, 1 part by weight of active compound is mixed with the stated amounts of solvent and emulsifier, and the concentrate is diluted with emulsifier-containing water to the desired concentration. For application with ammonium salts or phosphonium salts and penetration promoters (rapeseed oil methyl ester 500 EW) these are in each case added in a concentration of 1000 ppm a.i. to the spray liquor.
as §9, §10

[5] = tested on: green peach aphid (Myzus persicae); assay: Activity boost through ammonium/phosphonium salts in combination with penetration promoters, Myzus persicae test; settings: 20 ppm active compound
Procedure: Activity Boost Through Ammonium/Phosphonium Salts in Combination with Penetration Promoters
as §7, §8
as §11, with “with” for “with emulsifier-containing”, “ppm” for “ppm a.i.”
Bell pepper plants (Capsicum annuum) heavily infested by the green peach aphid (Myzus persicae) are sprayed to runoff with the preparation of active compound at the desired concentration. After the desired time, the kill in % is determined. 100% means that all of the animals have been killed; 0% means that no animals have been killed.

[6] = 20 ppm active compound, +AS (1000 ppm)
[7] = 20 ppm active compound, without AS
[8] = +RME + AS (in each case 1000 ppm)

## COC1CCC2(CC1)NC(=O)C(c1c(C)cc(C)cc1OC(F)(F)F)=C2OC(C)=O (single isomer, unassigned) [(I-b-25)]
Summer wheat; 100 g of a.i./ha, 10 days after application, without safener (table of I-b-25)
  Summer wheat observed (%) herbicidal effect: 20%

## COC1CCC2(C1)NC(=O)C(c1c(C)cc(C)cc1OC(F)(F)F)=C2O (single isomer, unassigned) [I-a-50]
Summer wheat; 28 days after application, 12.5 g of a.i./ha, without safener
  Summer wheat observed (%): 10%
Summer wheat; 28 days after application, 25 g of a.i./ha, without safener
  Summer wheat observed (%): 40%
Summer wheat; 28 days after application, 50 g of a.i./ha, without safener
  Summer wheat observed (%): 60%
Summer wheat; 28 days after application, 100 g of a.i./ha, without safener
  Summer wheat observed (%): 70%
Summer barley; 12.5 g of a.i./ha
  Summer barley observed (%): 8%
Summer barley; 25 g of a.i./ha
  Summer barley observed (%): 30%
Summer barley; 50 g of a.i./ha
  Summer barley observed (%): 50%
Summer barley; 100 g of a.i./ha
  Summer barley observed (%): 60%

## O=C1NC2(CCOCC2)C(O)=C1c1cc(OC(F)(F)F)ccc1Br [I-a-4]
[1]
  efficacy: ≥ 80%

## CCOC1CCCC2(C1)NC(=O)C(c1c(C)cc(C)cc1OC(F)(F)F)=C2OC(C)=O (single isomer, unassigned) [(I-b-24)]
Summer wheat; 12.5 g of a.i./ha, 10 days after application, without safener
  Summer wheat observed (%) herbicidal effect: 30%
Summer wheat; 25 g of a.i./ha, 10 days after application, without safener
  Summer wheat observed (%) herbicidal effect: 40%
Summer wheat; 50 g of a.i./ha, 10 days after application, without safener
  Summer wheat observed (%) herbicidal effect: 40%
Summer wheat; 50 g of a.i./ha, 28 days after application, without safener
  Summer wheat observed (%) herbicidal effect: 20%
Summer wheat; 100 g of a.i./ha, 10 days after application, without safener
  Summer wheat observed (%) herbicidal effect: 40%
Summer wheat; 100 g of a.i./ha, 28 days after application, without safener
  Summer wheat observed (%) herbicidal effect: 20%
Summer barley; 12.5 g of a.i./ha
  Summer barley observed (%) herbicidal effect: 10%
Summer barley; 25 g of a.i./ha
  Summer barley observed (%) herbicidal effect: 20%
Summer barley; 50 g of a.i./ha
  Summer barley observed (%) herbicidal effect: 30%
Summer barley; 100 g of a.i./ha
  Summer barley observed (%) herbicidal effect: 30%

## CCOC1CCC2(CC1)NC(=O)C(c1c(Br)cc(OC(F)(F)F)cc1Br)=C2O (single isomer, unassigned) [I-a-9]
[2]; [6]
  Kill rate/% after 6 days: 85%
[2]; [7]
  Kill rate/% after 6 days: 65%

## COC1CCC2(CC1)NC(=O)C(c1c(C)cc(C)cc1OC(F)(F)F)=C2O (single isomer, unassigned) [I-a-49]
Summer wheat; 10 days after application, 25 g of a.i./ha, without safener
  Summer wheat observed (%): 10%
Summer wheat; 10 days after application, 50 g of a.i./ha, without safener
  Summer wheat observed (%): 20%
Summer wheat; 10 days after application, 100 g of a.i./ha, without safener
  Summer wheat observed (%): 40%

## COC1CCC2(CC1)NC(=O)C(c1c(Br)cc(OC(F)(F)F)cc1Br)=C2O (single isomer, unassigned) [I-a-32]
[3]; +AS (1000 ppm)
  Kill rate/% after 6 days: 85%
[3]; without AS
  Kill rate/% after 6 days: 0%
[4]; +AS (1000 ppm)
  Kill rate/% after 6 days: 30%
[4]; +RME (1000 ppm)
  Kill rate/% after 6 days: 70%
[4]; [8]
  Kill rate/% after 6 days: 80%
[4]; without additive
  Kill rate/% after 6 days: 5%

## COC1CCC2(CC1)NC(=O)C(c1c(Cl)cc(OC(F)(F)F)cc1Cl)=C2O (single isomer, unassigned) [I-a-29]
[2]; 4 ppm active compound, +AS (1000 ppm)
  Kill rate/% after 6 days: 70%
[2]; 4 ppm active compound, without AS
  Kill rate/% after 6 days: 5%
[2]; [6]
  Kill rate/% after 6 days: 85%
[2]; [7]
  Kill rate/% after 6 days: 70%
[5]; +AS (1000 ppm)
  Kill rate/% after 6 days: 70%
[5]; +RME (1000 ppm)
  Kill rate/% after 6 days: 95%
[5]; [8]
  Kill rate/% after 6 days: 100%
[5]; without additive
  Kill rate/% after 6 days: 0%

## COC1CCC2(CC1)NC(=O)C(c1c(C)cc(OC(F)(F)F)cc1Cl)=C2O (single isomer, unassigned) [I-a-39]
[3]; +AS (1000 ppm)
  Kill rate/% after 6 days: 40%
[3]; without AS
  Kill rate/% after 6 days: 10%
